From ChEMBL document CHEMBL4321847, “Discovery of 6-(2,4-Dichlorophenyl)-5-[4-[(3S)-1-(3-fluoropropyl)pyrrolidin-3-yl]oxyphenyl]-8,9-dihydro-7H-benzo[7]annulene-2-carboxylic acid (SAR439859), a Potent and Selective Estrogen Receptor Degrader (SERD) for the Treatment of Estrogen-Receptor-Positive Breast Cancer” (J Med Chem, 2020)
Activity calls are given as the source filed them. The rule behind the calls is not given here.

Columns and labels:
in vitro [1] = conditions: human, microsomes
Description: Metabolic stability in human liver microsomes assessed as total metabolism

physchem = conditions: buffer, pH 7.4
Description: Lipophilicity, logD of the compound in phosphate buffer at pH 7.4

in vitro [2] = conditions: rat, microsomes
Description: Metabolic stability in rat microsomes assessed as total metabolism

in vitro [3] = conditions: mouse, microsomes
Description: Metabolic stability in mouse microsomes assessed as total metabolism

in vivo [4] = conditions: rat, po, 10 mg/kg
in vivo [5] = conditions: mouse, iv, 3 mg/kg
Description: Clearance in mouse at 3 mg/kg, iv or 10 mg/kg, po

in vivo [6] = conditions: mouse
Description: Half life in mouse at 3 mg/kg, iv or 10 mg/kg, po

in vivo [7] = conditions: rat, iv, 3 mg/kg
Description: Clearance in rat at 3 mg/kg, iv or 10 mg/kg, po

MCF7 [8] = type: functional, Homo sapiens; conditions: at 25 mg/kg
Description: Antitumor activity against tamoxifen-sensitive human MCF7 cells xenografted in 17-beta-estradiol pellets implanted nu/nu mouse assessed as tumor regression at 25 mg/kg, po administered bid daily and monitored for biweekly

MCF7 [9] = conditions: Homo sapiens
Description: Antitumor activity against tamoxifen-sensitive human MCF7 cells xenografted in 17-beta-estradiol pellets implanted nu/nu mouse assessed as reduction in tumor growth at 2.5 to 12.5 mg/kg, po administered bid daily and monitored for biweekly

in vivo [10] = conditions: dog, iv, 3 mg/kg
Description: Volume of distribution at steady state in dog at 3 mg/kg, iv or 10 mg/kg, po

in vivo [11] = conditions: dog
Description: Half life in dog at 3 mg/kg, iv or 10 mg/kg, po

in vivo [12] = conditions: rat
Description: Half life in rat at 3 mg/kg, iv or 10 mg/kg, po

in vivo [13] = conditions: mouse, iv, 3 mg/kg; remark: listed apart in the source
Description: Volume of distribution at steady state in mouse at 3 mg/kg, iv or 10 mg/kg, po

in vivo [14] = conditions: mouse, po, 10 mg/kg
in vivo [15] = conditions: rat, iv, 3 mg/kg; remark: listed apart in the source
Description: Volume of distribution at steady state in rat at 3 mg/kg, iv or 10 mg/kg, po

in vivo [16] = conditions: dog, po, 10 mg/kg
in vivo [17] = conditions: dog, iv, 3 mg/kg; remark: listed apart in the source
Description: Clearance in dog at 3 mg/kg, iv or 10 mg/kg, po
For T/C in this document: time not given here.

SMILES | metabolised (in vitro [1]) [%] | logD (physchem) | metabolised (in vitro [2]) [%] | metabolised (in vitro [3]) [%] | further results
Oc1ccc2c(c1)CCCC(c1ccc(F)cc1Cl)=C2c1ccc(O[C@H]2CCN(CCCF)C2)cc1 | 31 | 4.59 | 44 | 20 | –
O=C(O)c1ccc2c(c1)CCCC(c1ccc(Cl)cc1Cl)=C2c1ccc(O[C@H]2CCN(CCCF)C2)cc1 [AMCENESTRANT] | 12 | 3.25 | 4 | 13 | bioavailability (in vivo [4]): 76%; clearance (in vivo [5]): 32 mL/min/kg; half-life (in vivo [6]): 1.98 h; clearance (in vivo [7]): 3.17 mL/min/kg; T/C (MCF7 [8]): -28%; TGI (MCF7 [9]): Active; Vd (in vivo [10]): 0.5 L/kg; half-life (in vivo [11]): 9.8 h; half-life (in vivo [12]): 4.13 h; Vd (in vivo [13]): 6.1 L/kg; bioavailability (in vivo [14]): 62%; Vd (in vivo [15]): 0.83 L/kg; bioavailability (in vivo [16]): 54%; clearance (in vivo [17]): 0.5 mL/min/kg
O=C(O)c1ccc2c(c1)CCCC(c1cccc(F)c1Cl)=C2c1ccc(O[C@H]2CCN(CCCF)C2)cc1 | 28 | 2.59 | 2 | 0 | –
O=C(O)c1ccc2c(c1)CCCC(c1ccc(SC(F)(F)F)cc1)=C2c1ccc(O[C@H]2CCN(CCCF)C2)cc1 | 10 | 3.46 | 4 | 12 | –
Oc1ccc2c(c1)C(c1ccc(O[C@H]3CCN(CCCF)C3)cc1)=C(c1ccc(F)cc1Cl)CCC2 | 57 | – | 80 | 30 | –
O=C(O)c1ccc2c(c1)CCCC(c1ccc(Cl)cc1)=C2c1ccc(O[C@H]2CCN(CCCF)C2)cc1 | 2 | 2.9 | 1 | 15 | –
O=C(O)c1ccc2c(c1)CCCC(c1ccccc1Cl)=C2c1ccc(O[C@H]2CCN(CCCF)C2)cc1 | 0 | 2.63 | 4 | 5 | –
Oc1ccc2c(c1)CCCC(c1cccc(Cl)c1F)=C2c1ccc(O[C@H]2CCN(CCCF)C2)cc1 | 37 | 4.32 | 45 | 41 | –
Oc1ccc2c(c1)CCCC(c1ccc3[nH]ccc3c1)=C2c1ccc(O[C@H]2CCN(CCCF)C2)cc1 | 39 | 3.49 | 75 | 61 | –
O=C(O)c1ccc2c(c1)CCCC(c1ccc(OC(F)(F)F)cc1)=C2c1ccc(O[C@H]2CCN(CCCF)C2)cc1 | 20 | 3.43 | 2 | 10 | –
Oc1ccc2c(c1)CCCC(c1ccc(Cl)cc1Cl)=C2c1ccc(O[C@H]2CCN(CCCF)C2)cc1 | 30 | 5.27 | 17 | 18 | –

Continued, in another order:

metabolised (in vitro [1]) [%] | logD (physchem) | metabolised (in vitro [2]) [%] | metabolised (in vitro [3]) [%] | SMILES | further results
55 | – | 48 | 25 | Oc1ccc(C2=C(c3ccc(O[C@H]4CCN(CCCF)C4)cc3)c3ccc(O)cc3CCC2)cc1 | –
41 | 4.11 | 53 | 31 | Oc1ccc2c(c1)CCCC(c1ccccc1Cl)=C2c1ccc(O[C@H]2CCN(CCCF)C2)cc1 | –
34 | 4 | 53 | 44 | Oc1ccc2c(c1)CCCC(c1ccccc1)=C2c1ccc(O[C@H]2CCN(CCCF)C2)cc1 | –
72 | 2.35 | 74 | 65 | Oc1ccc2c(c1)CCCC(c1ccc3[nH]ncc3c1)=C2c1ccc(O[C@H]2CCN(CCCF)C2)cc1 | –
49 | – | 58 | 55 | Oc1ccc(C2=C(c3ccc(O[C@H]4CCN(CCCF)C4)cc3)c3cc(O)ccc3CCC2)cc1 | –
70 | 2.11 | 60 | 39 | Oc1ccc2c(c1)CCCC(c1ccncc1)=C2c1ccc(O[C@H]2CCN(CCCF)C2)cc1 | –
70 | 2.11 | 80 | 31 | Oc1ccc2c(c1)CCCC(c1cccnc1)=C2c1ccc(O[C@H]2CCN(CCCF)C2)cc1 | –
